Test results published in patent US11419876B2, “Mirtazapine as a pre-shipping inhibitor of bovine respiratory disease” (Iowa State University Research Foundation, Inc., priority 2019, dated 2022).

Tested on: BRD
Assay: Pre-shipment mirtazapine treatment for BRD prevention at the feedlot
Type: in vivo, ranch heifer calves
Experimental: An initial study was performed to confirm BRD prevention at the feedlot using a pre-shipment treatment comprising mirtazapine. A total of 24 ranch heifer calves that were recently weaned (mixed breeds, approximately 350 lbs, 6 months old) were randomly assigned to two different treatment groups. One group was fed mirtazapine in a standard starter feed at 5 mg/kg/day as a pre-shipment treatment. The treatment dosage was extrapolated from feline dosing. After one week, calves were shipped from southern Missouri to Iowa. For the next […], calves were monitored for BRD which was ascribed to any animal showing respiratory signs (i.e. coughing, runny nose or eyes, labored or rapid breathing) plus a rectal temperature >104° F. BRD(+) calves were then treated with florfenicol+flunixin. Calves requiring a second treatment received ceftiofur plus tulathromycin, while the third treatment consisted of enrofloxacin, if needed. At the end of the study calves were sold as seedstock and were kept out of the food chain.
The efficacy of the mirtazapine as a pre-shipment treatment for preventing BRD was assessed by various clinical parameters, as shown in Table 1 and FIG. 1.
The % morbidity equals the % of calves that developed BRD in the first six weeks. The % mortality equals the percent of BRD(+) calves that died of the disease. The % retreats equals the % of BRD(+) calves that required >2 treatments for BRD once developed. The data are compared to Control calves that were not fed mirtazapine prior to shipping to a feedlot (“None”).

[1] = fed in starter feed at 5 mg/kg/day for one week pre-shipment, BRD(+) calves

Question: Which “% Morbidity (% of calves that developed BRD)” value (fed in starter feed at 5 mg/kg/day for one week pre-shipment, % of calves that developed BRD in the first six weeks) does the source give for `CN1CCN2c3ncccc3Cc3ccccc3C2C1` (stereo not drawn) [Mirtazapine, 1,2,3,4,10,14b-hexahydro-2-methyl-pyrazino[2,1-a]pyrido[2,3-c] benzazepine] here?
Answer: 42%

Question: What about the “% Mortality (percent of BRD(+) calves that died of the disease)” value [1] of the same compound?
Answer: 0%

Question: What about the “% Retreats (% of BRD(+) calves that required >2 treatments for BRD)” value [1] of the same compound?
Answer: 11%

Question: What about the “Avg. days to onset BRD” value (fed in starter feed at 5 mg/kg/day for one week pre-shipment, after shipping to feedlot) of the same compound?
Answer: 7.3 days

Question: And the “Avg. Rectal Temp at BRD” value (fed in starter feed at 5 mg/kg/day for one week pre-shipment, at clinical presentation with BRD)?
Answer: 104.2 degrees F.

Question: What about the “Effect on morbidity, mortality and severity of BRD (in words)” value (fed to calves for one week prior to shipping, versus control calves not fed mirtazapine) of the same compound?
Answer: reduces the morbidity, mortality, and severity
